Experimental data taken from PubChem BioAssay AID651581 (Sanford-Burnham Center for Chemical Genomics, 2012).
The source made the active and inactive calls. The rule behind the calls is not given here.

Experiments:
[1] = target: Endothelial PAS domain-containing protein 1 (Homo sapiens) (UniProt Q99814); experiment: potency against HIF reporters across cell lines – luminescence, panel, selectivity assay for HIF-2a inhibitor project, dose response (AID 651581); settings: human cell HIF reporter
[2] = target: Hypoxia-inducible factor 1-alpha (Homo sapiens) (UniProt Q16665); experiment: as above; settings: human cell HIF reporter, HIF-1a
Sequence of Hypoxia-inducible factor 1-alpha (Homo sapiens) (Q16665 whole entry, looked up): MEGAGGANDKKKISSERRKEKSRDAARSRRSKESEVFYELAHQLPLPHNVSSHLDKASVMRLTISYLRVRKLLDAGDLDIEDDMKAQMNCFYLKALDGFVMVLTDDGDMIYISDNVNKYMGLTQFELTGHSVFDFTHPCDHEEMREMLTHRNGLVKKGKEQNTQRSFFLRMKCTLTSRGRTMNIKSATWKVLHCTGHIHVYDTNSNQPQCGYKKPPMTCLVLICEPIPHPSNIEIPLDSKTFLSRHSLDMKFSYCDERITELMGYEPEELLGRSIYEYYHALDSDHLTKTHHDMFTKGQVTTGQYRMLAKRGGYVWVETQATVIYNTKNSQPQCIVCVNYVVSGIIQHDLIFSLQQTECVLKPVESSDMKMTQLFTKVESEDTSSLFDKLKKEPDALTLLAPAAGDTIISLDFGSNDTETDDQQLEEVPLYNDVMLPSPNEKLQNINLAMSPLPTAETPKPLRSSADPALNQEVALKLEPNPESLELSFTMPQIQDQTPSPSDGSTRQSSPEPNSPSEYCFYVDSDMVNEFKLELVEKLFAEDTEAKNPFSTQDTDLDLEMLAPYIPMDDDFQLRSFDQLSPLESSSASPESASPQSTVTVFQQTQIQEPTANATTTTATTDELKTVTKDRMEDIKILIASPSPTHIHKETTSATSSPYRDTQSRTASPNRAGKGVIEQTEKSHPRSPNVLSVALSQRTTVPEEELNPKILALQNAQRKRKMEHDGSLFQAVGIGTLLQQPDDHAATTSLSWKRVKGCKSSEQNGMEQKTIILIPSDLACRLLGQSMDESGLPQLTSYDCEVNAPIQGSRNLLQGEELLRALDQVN

Row | Structure (SMILES) | IC50 ([1]; HIF-2a PANC, mean of runs) | IC50 ([1]; HIF-2a PANC, run 1) [µM] | IC50 ([1]; HIF-2a PANC, run 2) [µM] | IC50 ([1]; HIF-2a, mean of runs) | IC50 ([1]; HIF-2a, run 1) [µM] | IC50 ([1]; HIF-2a, run 2) [µM] | IC50 ([2]; mean of runs) | IC50 ([2]; run 1) [µM] | IC50 ([2]; run 2) [µM]
1 | COc1ccc(/C=C2\SC(=O)N(CCNC(=O)Cn3[nH]c(=O)c4ccccc4c3=O)C2=O)cc1 | 7.76 µM | 8.52 | 7.01 | inactive | 12 | 13.1 | inactive | 7.03 | 17.2
2 | Cc1nc(SCCC(=O)O)c2cc(-c3ccccc3)sc2n1 | inactive | 1.02 | 1.53 | 0.212 µM | 0.196 | 0.228 |  | > 99 | 1.56
3 | CC(=O)Nc1ccc(NC(=O)c2c([N+](=O)[O-])c(C(C)(C)C)nn2C)cc1 | 11 µM | 11.2 | 10.8 | inactive | 10.8 | 11.6 | inactive | 9.31 | 22.8
4 | CC(=O)Nc1ccc(OS(=O)(=O)c2ccc(C)cc2C)cc1 | 7.66 µM | 5.49 | 9.84 | 3.79 µM | 3.7 | 3.87 | 24.9 µM | 28.2 | 21.6
5 | C/C(=N\NC(=O)c1n[nH]c2c1CCC2)c1cccs1 | inactive | 27.1 | 15.3 | 4.55 µM | 4.42 | 4.68 | inactive | 13.7 | 11.6
6 | O=Cc1cn(Cc2cccc([N+](=O)[O-])c2)c2ccccc12 | > 99 µM (inactive) | > 99 | > 99 | 0.978 µM | 0.982 | 0.975 |  | > 99 | > 99
7 | CC(=O)c1ccc(NC(=O)c2cnn3ccccc23)cc1 | 18.4 µM | 20.3 | 16.6 | inactive | 11.7 | 9.93 | inactive | 12.9 | 20.6
8 | CC(C)(C)c1ccc(-c2noc(CCC(=O)NCc3ccco3)n2)cc1 | < 3 µM | < 3 | < 3 | < 1 µM | < 1 | < 1 |  | < 0.19 | 41.9
9 | CCOc1ccc(C(=O)Nc2nnc(SCC(=O)NCC3CCCO3)s2)cc1 (centres undefined) | 46.9 µM | 21 | 72.7 | < 30 µM (inactive) | < 30 | < 30 |  | > 99 | > 99
10 | NCCN1C(=O)S/C(=C\c2ccc3c(c2)OCO3)C1=O | inactive | 9.33 | 4.41 | 1.12 µM | 1.15 | 1.09 | 5.89 µM | 6.19 | 5.6
11 | Cc1ccc(C)c(-c2nc3cc(N)ccc3o2)c1 | 2.65 µM | 2.6 | 2.7 | 3.03 µM | 3.35 | 2.7 |  | > 99 | 56.4
12 | S=C(c1ccc(-c2ccccc2)cc1)N1CCOCC1 | 2.79 µM | 2.51 | 3.07 | 1.06 µM | 0.98 | 1.15 | inactive | 1.48 | 2.53
13 | COc1cc(OC)cc(-c2nnc(Nc3nc4c(F)cccc4s3)o2)c1 | 6.26 µM | 7.31 | 5.21 | 3.15 µM | 4.09 | 2.2 |  | > 99 | > 99
14 | Cc1csc(NC(=O)CCc2c(C)nc3cc(-c4ccc(Cl)cc4)nn3c2C)n1 |  | < 0.19 | 0.308 |  | < 1 | 0.344 |  | 0.486 | < 10
15 | Cc1c(CCC(=O)O)c(=O)oc2cc(OCc3ccccc3Br)ccc12 | 5.79 µM | 2.48 | 9.09 | 6.3 µM | 6.05 | 6.54 | inactive | 8.16 | 20.8
16 | Cc1cccc(NC(=S)NNc2ncc(C(F)(F)F)cc2Cl)c1 | 2.01 µM | 2.31 | 1.71 | 8.98 µM | 8.85 | 9.11 | 30.1 µM | 33.1 | 27.1
17 | COc1cc(N2C(=O)C=CC2=O)c(OC)cc1Cl | inactive | 38.5 | 45.2 | 8.55 µM | 8.69 | 8.4 | 36.8 µM | 33.2 | 40.4
18 | Cc1ccc(Oc2ccc(OCC(=O)Nc3ccncc3)cc2)cc1 | 3.59 µM | 3.76 | 3.42 | 5.89 µM | 5.61 | 6.17 | inactive | 14.9 | 15.9

Row | Structure (SMILES) | IC50 ([1]; HIF-2a PANC, mean of runs) | IC50 ([1]; HIF-2a PANC, run 1) [µM] | IC50 ([1]; HIF-2a PANC, run 2) [µM] | IC50 ([1]; HIF-2a, mean of runs) | IC50 ([1]; HIF-2a, run 1) [µM] | IC50 ([1]; HIF-2a, run 2) [µM] | IC50 ([2]; mean of runs) | IC50 ([2]; run 1) [µM] | IC50 ([2]; run 2) [µM]
19 | COc1ccc(/C=N\n2nnc3ccccc32)cc1 | 7.03 µM | 7.48 | 6.58 | < 30 µM (inactive) | < 30 | < 30 | < 30 µM (inactive) | < 30 | < 30
20 | Cc1nn(-c2ccccc2)c(Cl)c1/C=N/Nc1ccc(Cl)c(C(=O)O)c1 |  | > 99 | > 99 |  | < 30 | > 99 | > 99 µM (inactive) | > 99 | > 99
21 | O=C(O)c1cccc(-c2nnn(Cc3ccccc3Cl)n2)c1 | > 99 µM (inactive) | > 99 | > 99 | < 30 µM (inactive) | < 30 | < 30 |  | > 99 | > 99
22 | Cc1c(CCC(=O)NCCC(=O)O)c(=O)oc2c(C)c3oc4c(c3cc12)CCCC4 | 2.65 µM | 2.34 | 2.96 | 3.08 µM | 2.85 | 3.32 | inactive | 1.23 | 14.5
23 | C/C(=N/NC(=O)c1cc(C2CC2)[nH]n1)c1cccs1 |  | > 99 | < 30 | < 30 µM (inactive) | < 30 | < 30 | inactive | 24.8 | 21.7
24 | Cn1ncc2c(O/N=C(\N)c3ccc(C(C)(C)C)cc3)ncnc21 |  | < 30 | 45.6 | 4.17 µM | 4.26 | 4.08 |  | > 99 | 48.2
25 | Cc1ccc(NC(=O)c2cc(N3C(=O)C=CC3=O)ccc2N2CCOCC2)cc1Cl |  | 76.3 | > 99 | 5.36 µM | 5.12 | 5.61 | 49.8 µM | 60.4 | 39.3
26 | CCOC(=O)Cc1csc(NC(=S)NC(=O)c2ccc(F)cc2)n1 |  | > 99 | 13.5 | 1.96 µM | 1.92 | 2.01 | 12.9 µM | 13.5 | 12.4
27 | C(=NNc1ccc2ccccc2n1)c1ccccn1 | inactive | 44.8 | 51.1 | 5.57 µM | 5.49 | 5.65 | 23.5 µM | 22 | 24.9
28 | O=C(CSc1nnc(-c2ccc(Br)cc2)o1)Nc1cccc(C(=O)O)c1 | > 99 µM (inactive) | > 99 | > 99 | 9.73 µM | 10.4 | 9.1 |  | > 99 | > 99
29 | CCOC(=O)c1cc(-c2csc(-c3ccc(C(C)(C)C)cc3)n2)on1 | > 99 µM (inactive) | > 99 | > 99 | 4.82 µM | 4.83 | 4.81 | 55.7 µM | 68.5 | 42.9
30 | O=C(Nc1cc(S(=O)(=O)N2CCOCC2)ccc1Cl)c1cc([N+](=O)[O-])ccc1Cl |  | > 99 | 80.5 | inactive | 15.1 | 13.9 | inactive | 23.9 | 17.6
31 | Cc1nc2cc(-c3cccc(F)c3)nn2c(C)c1CCC(=O)N1CCC2(CC1)OCCO2 | 2.03 µM | 2.17 | 1.9 | 1.27 µM | 1.27 | 1.28 | 68.8 µM | 81.5 | 56.2
32 | O=C(O)COc1ccc(-c2nccc(-c3ccccn3)n2)cc1 | 1.14 µM | 1.36 | 0.912 | 0.913 µM | 0.806 | 1.02 | inactive | 0.397 | 0.777
33 | N#Cc1c(NC(=O)CCCC(=O)O)sc2c1CCCCC2 | 0.417 µM | 0.379 | 0.455 |  | 51.8 | < 0.19 |  | > 99 | > 99
34 | O=C(Nc1ccc(N2CCOCC2)cc1)c1cnccn1 | inactive | 31.5 | 33.2 | 9.42 µM | 9.5 | 9.33 | inactive | 14.5 | 21.4
35 | O=C(CCCc1nc(-c2ccccc2Cl)no1)NC1CCCC1 | 0.975 µM | 1.08 | 0.867 | 1.04 µM | 0.993 | 1.08 | inactive | 1.26 | 1.83
